{"source": "patent US11673891B2", "about": "“Imidazopyrimidine compounds and uses thereof” (Dana-Farber Cancer Institute, Inc., priority 2017, dated 2023)", "format_in_all_cases": "cell-based", "key": {"human adult PBMCs [1]": {"system": "human adult PBMCs", "assay": "9-plex multiplex cytokine assay after stimulation of adult PBMCs", "details": "0.1 μM-33 μM, 18 hours, 10% autologous plasma, fold-change over unstimulated control, N=4", "procedure": "Shown is a 9-plex multiplex cytokine assay after stimulation of adult peripheral blood mononuclear cells (PBMCs) with compound 037 or R848 at four different concentrations (0.1 μM-33 μM). Radar plots of immune polarizing cytokine production from human adult PBMCs stimulated for 18 hours in 10% autologous plasma, represented as fold-change over RPMI unstimulated control (N=4).\n(§1) ELISAs and Multiplex-Analyte Assays. Supernatants derived from human PBMCs and DC stimulations were assayed by ELISA for TNF (ThermoFisher Scientific; Waltham, Mass., USA). Cytokine and chemokine expression profiles (e.g., IFNγ, IL-9, IL-10, IL-12 (p70), IL-13, IL-1β, IL-23, IL-27, IL-28A, IL-33, IL-6, MIP-3α/CCL20, and TNF) in cell culture supernatants were measured using a customized Milliplex® Human Th17 Magnetic Bead Panel according to the manufacturer's instructions (Millipore, Chicago, Ill., USA). Assays were read and analyzed on the Luminex® 100/200™ System and xPOTENT® software (Luminex, Austin, Tex.). A minimum threshold was set at the minimum detectable concentration for each individual assay, defined as three standard deviations above the mean background."}, "PBMCs": {"system": "PBMCs", "assay": "TNF AlphaLISA screen on primary human PBMCs", "details": "robust Z score >2 in both duplicates and at least 2 of 3 donors", "procedure": "TNF AlphaLISA screen was comprised of three parts: 1) human peripheral blood collection and PBMC isolation—human adult peripheral blood was collected with written consent. PBMCs were isolated from the blood using Ficoll density gradient. PBMCs were stored at 50 million cells per vial in 1 ml RPMI containing 20% autologous plasma and 10% DMSO at −80° C. until use; 2) TNFαLISA Assay—On Day 1, PBMCs were thawed in 37° C. water bath for 3 min and washed twice with PBS. Trypan blue viable cell count was obtained and cells were resuspended to viable 6.67×10^5 cells/ml in DMEM with 10% autologous plasma. Cells were dispensed in 30 μl per well in Corning 2712 black 384-well cell culture plates (final concentration was 20,000 cells/well). Controls were added to cells manually and the test compounds were added by robotic pin transfer. Plates were then incubated at 37° C./5% CO2 humidity-controlled incubator for 18 hours. On Day 2 of the assay, plates were centrifuged and 2 μl supernatants were collected into Perkin Elmer Alpha plates. Perkin Elmer Human TNFα kits (cat #AL208F) were used to detect the presence of TNFα in supernatants.\nTNFαLISA Assay. Human adult peripheral blood was collected according to approved protocols. […] Viability was assessed by trypan blue staining and cells were then resuspended to 6.67×10^5 viable cells/mL in DMEM with 10% autologous plasma. […]"}, "[2]": {"system": "Human adult and elderly PBMCs", "assay": "Adult and elderly PBMCs stimulated with confirmed hit compounds, TNF and IL-1β by ELISA", "details": "18 hours, N=5", "procedure": "(FIG. 2A) Human adult (top) and elderly (bottom) PBMCs stimulated for 18 hours with the TLR7/8 agonist R848 and 24 confirmed hit compounds from TNF AlphaLISA screen. TNF (left panels) and IL-1β (right panels) were assessed in cell-free supernatants by ELISA. Data are shown as median and interquartile range of N=5.\nas §1"}, "human adult PBMCs [3]": {"system": "human adult PBMCs", "assay": "TNF production by ELISA after stimulation of human adult PBMCs", "details": "33 μM, 18 hours", "procedure": "Table 1. Activity of Exemplary Imidazopyrimidine Compounds on Stimulating TNF Production in PBMCs as Compared to Compound R848 Table 1 provides the activity of exemplary compounds on stimulating TNF production in PBMCs as compared to the benchmark compound R848. Specifically, TNF production was measured by ELISA after stimulation of adult PBMCs with compound 037 analog family or the compound R848 at 33 μM for 18 hours. Analogs are ranked top to bottom by median percentage TNF production (TNF %) as compared to R848 (N=3-5). The compounds have been classified in the following categories according to TNF %: high activity—class A: TNF %>15%; medium activity—class B: 1%<TNF %≤15%; low activity—class C: TNF %≤1%.\nas §1\nPBMCs were isolated from blood using a Ficoll density gradient. PBMCs either used fresh or were stored at 5×10^7 cells per vial in 1 mL RPMI containing 20% autologous plasma and 10% DMSO at −80° C. until use. Stimulation plates were prepared by transferring 0.66 μl of DMSO-dissolved compounds (10 mM) to each well of a round bottom 96-well plate. PBMCs isolated from human adult donors were resuspended at a concentration of 10^5 cells/200 μl of RPMI supplemented with 10% of platelet-poor plasma. 200 μl of the cell suspension were transferred to each well resulting in a final compound concentration of […]. After about 18 hours of incubation (37° C., 5% CO2), plates were spun down (500×g, room temperature, 5 minutes) and supernatants were harvested for further analysis."}}, "data": [{"compound": "CCC(C(=O)Nc1cc(-c2cn3cccnc3n2)ccc1C)c1ccccc1", "note": "(stereo not shown) [Compound 37]", "values": [{"measurement": "Cytokine response, 9-plex multiplex (in words)", "setting": "human adult PBMCs [1]", "result": "induced a broad concentration-dependent cytokine response"}, {"measurement": "Hit in PBMC TNFαLISA screen (in words)", "setting": "PBMCs", "result": "identified in the PBMC TNFαLISA screen"}, {"measurement": "TNF and IL-1β induction from adult and elderly PBMCs (in words)", "setting": "[2]", "result": "induce TNF and IL-1β from adult and elderly PBMCs"}, {"measurement": "TNF (Median)", "setting": "human adult PBMCs [3]; adult PBMCs, ELISA, median, N=3-5, unit not given (FIG. 6B/7B legends: TNF concentration in ng/ml)", "result": 2.403}, {"measurement": "Activity class", "setting": "human adult PBMCs [3]; class according to TNF % as compared to R848, adult PBMCs", "result": "A (high activity—class A: TNF %>15%)"}, {"measurement": "Production of human TNF by PBMCs (in words)", "setting": "human adult PBMCs [3]; human adult PBMCs, ELISA", "result": "induces robust production of TNF-α"}, {"measurement": "TNF % (Median)", "setting": "human adult PBMCs [3]; median percentage TNF production as compared to R848, adult PBMCs, N=3-5", "result": 69.79, "unit": "%"}]}]}
